Results on eleven compounds are retold here after US4859668A, “Method of inhibiting the growth of melanin-pigmented cells” (North Carolina State University, priority 1988, dated 1989).

Like-named read-outs stand apart in the source and are kept apart here.

For data set [1], the system named is S91 melanoma. Briefly: Effects of Various Cyclic Amines on Growth of Pigmented Melanoma Cells (Table III), S91. The class given is cell-based, mouse. Conditions: for inhibition at 13800 µM: Mus musculus, read-out: Percent Inhibition, S91 melanoma. On the procedure: (§1) Pigmented S91 melanoma and unpigmented L929 fibroblast cells were treated with various cyclic amines at a concentration of 13.8 mM as described in Example 1 above.

Data set [2] has as its system L929 fibroblast. Briefly: Effects of Various Cyclic Amines on Growth of Pigmented Melanoma Cells (Table III), L929. Conditions: for inhibition at 13800 µM: Mus musculus, read-out: Percent Inhibition, L929 fibroblast. In kind it is cell-based, mouse. Here is the method: as §1
The test system of the next data set is melanin-pigmented cells. Briefly: In vitro selective inhibition of melanin-pigmented cells, effective dosage/time regimens. In kind it is cell-based.
Data set [3] has as its system HFH-LP. As to the kind of experiment: Effect of Cyclic Amines on Growth Rate of Pigmented Melanoma (Table I), HFH-LP. In kind it is cell-based, mouse.
Method: (§3) These cell cultures include low passage HFH (HFH-LP), a pigmented line derived from the B-16 mouse melanoma, and NP, an amelanotic clone of HFH-LP. […] These cells were maintained as monolayers in Corning plastic flasks in Minimum Essential Medium (Eagle) with Earle's salts supplemented with 10% fetal bovine serum, 100 units of penicillin, 100 mg of streptomycin and 5 mg of amphotericin B per ml in 5% CO2 humidified air at 37° C.
(§4) Prior to dose-response studies, single cell suspensions were prepared in medium following trypsinization and inoculated into Falcon Multiwell plates (2 cm^2 wells) at 3.5×10^4 cells per 0.5 ml of medium. Cultures were maintained for 24 hours before exposure.
(§5) This stock solution was used to prepare test concentrations of the drug in culture medium. […] Cells were exposed to each of these concentrations by adding 0.5 ml of each of the solutions to triplicate test wells and incubating the cells under exposure at 37° C. for 1 hour. […] Cells were harvested after 48 hours and counted with a hemacytometer.
Data set [4] has as its system NP. Briefly: cells. Conditions: Mus musculus, 1.5 h, read-out: Effect on Growth Rate (inhibition), NP.
Method: as §3, §4, §5
The next data set is described as follows: in vitro. Conditions: mouse, l929 cells.
Data set [5] concerns S91 (Cloudman S91 mouse melanoma). Briefly: Effect of Cyclic Amines on Survival of Pigmented Melanoma (Table II), S91. Conditions: 24 h, read-out: percentage dead, S91.
Method: (§6) These cells were maintained as monolayers in Corning plastic flasks in Minimum Essential Medium (Eagle) with Earle's salts supplemented with 10% fetal bovine serum, 100 units of penicillin, 100 mg of streptomycin and 5 mg of amphotericin B per ml in 5% CO2 humidified air at 37° C.
as §4, §5
The subject of data set [6] is HFH-LP. Briefly: Effect of Cyclic Amines on Survival of Pigmented Melanoma (Table II), HFH-LP. Conditions: Mus musculus, 24 h, read-out: percentage dead, HFH-LP.
Method: as §6, §4, §5
The subject of a further data set is L929. Briefly: cells. Conditions: Mus musculus, L929, read-out: Growth inhibition, Theo. Alone vs. control.
For data set [7], the system named is Unpigmented NP, CHO and mouse fibroblast L929 cells. Briefly: Enhancement of toxicity by theophylline pretreatment, unpigmented cells. The class given is cell-based, mouse; Chinese hamster.
Method: Twenty-four hours after seeding, the cells were exposed to either (a) culture medium alone, or (b) culture medium containing 0.5 mM theophylline.
The next data set deals with HFH-LP and HFH-HP. As to the kind of experiment: Pigmentation and growth of cells exposed to theophylline, HFH-LP and HFH-HP. The class given is cell-based, mouse. Conditions: theophylline exposure.
The subject of a further data set is RPMI 1946 cells. As to the kind of experiment: Pigmentation and growth of cells exposed to theophylline, RPMI 1946. The class given is cell-based, Syrian hamster. Conditions: theophylline exposure.
Data set [8] deals with RPMI-1641. Conditions: lightly pigmented RPMI 1641.
From the text: (§7) These cell cultures include low passage HFH (HFH-LP), a pigmented line derived from the B-16 mouse melanoma, and NP, an amelanotic clone of HFH-LP. High passage HFH (HFH-HP) was derived from HFH-LP after 30 passages in vitro. […] These cell cultures further include Cloudman S91 mouse melanoma, RPMI 1846 (a Syrian hamster melanoma), baby hamster kidney (BHK) and Chinese hamster ovary (CHO). These cells were maintained as monolayers in Corning plastic flasks in Minimum Essential Medium (Eagle) with Earle's salts supplemented with 10% fetal bovine serum, 100 units of penicillin, 100 mg of streptomycin and 5 mg of amphotericin B per ml in 5% CO2 humidified air at 37° C.
(§8) Single cell suspensions were prepared as described above. Twenty-four hours after seeding, the cells were exposed to either (a) culture medium alone, or (b) culture medium containing 0.5 mM theophylline.
(§9) The values given are the mean from 6 replicates.
The test system of data set [9] is HFH-LP. Briefly: cells. Conditions: Mus musculus, read-out: Growth inhibition, Theo. Alone vs. control.
From the text: as §7, §8, §9
The next data set deals with HFH-HP. Briefly: cells. Conditions: Mus musculus, read-out: Growth inhibition, Theo. Alone vs. control.
The subject of data set [10] is RPMI-1641. As to the kind of experiment: cells. Conditions: read-out: Growth inhibition, Theo. Alone vs. control.
From the text: as §7, §8, §9
Data set [11] deals with NP. Briefly: cells. Conditions: Mus musculus, read-out: Growth inhibition, Theo. Alone vs. control.
From the text: as §7, §8, §9
In a further data set the test system is BHK. Briefly: cells. Conditions: Mesocricetus auratus, read-out: Growth inhibition, Theo. Alone vs. control.
Data set [12] has as its system S91 melanoma. Briefly: Effect of High Dose Exposure to Piperidino 1,2-Propanediol (Table V), S91. The class given is cell-based, mouse. Conditions: 30 min. exposure. The text has this:
(§2) Pigmented S91 melanoma and nonpigmented L929 fibroblast cells were exposed to high doses of piperidino 1,2-propanediol.

Data set [13] deals with L929 fibroblast. Briefly: Effect of High Dose Exposure to Piperidino 1,2-Propanediol (Table V), L929. In kind it is cell-based, mouse. Conditions: 30 min. exposure.
From the text: as §2

[14] abbreviates: S91, 1 Hour Exposure to 13.8 mM.
Where [15] appears, read: L929, 1 Hour Exposure to 13.8 mM.

From the text for BHK: as §7, §8, §9
Method for HFH-LP and HFH-HP: as §8
Method for RPMI 1946 cells: as §8

Broadly, the inhibition is the change of the read-out against control, counted positive when it falls. Turning to `CN1CCN(C)CC1` [1,4-dimethylpiperazine], the inhibition at 13800 µM in the data set with S91 melanoma [1] (setting [14]) is 99%; with L929 fibroblast [2] (setting [15]) it was 0%. The “in vitro effectiveness of dosage/time regimen” value with melanin-pigmented cells (13.8 mM for 1 hour) is reported as “effective in vitro for inhibiting the growth of melanin-pigmented cells with little or no effect upon unpigmented cells”.

Turning to `CN1CCNCC1` [1-methylpiperazine], the inhibition at 13800 µM is 99% with S91 melanoma [1] (setting [14]) and 0% in the data set with L929 fibroblast [2] (setting [15]). Moreover, the “in vitro effectiveness of dosage/time regimen” value in the data set on melanin-pigmented cells (13.8 mM for 1 hour) was “effective in vitro for inhibiting the growth of melanin-pigmented cells with little or no effect upon unpigmented cells”.

On to `CN1CCCCC1` [1-methylpiperidine], for which the inhibition at 13800 µM with S91 melanoma [1] (setting [14]) stood at 99%; in the data set on L929 fibroblast [2] (setting [15]), 4%. Besides, in the data set on melanin-pigmented cells (13.8 mM for 1 hour), the “in vitro effectiveness of dosage/time regimen” value is “effective in vitro for inhibiting the growth of melanin-pigmented cells with little or no effect upon unpigmented cells”.

With `CC1CNC(C)CN1` (stereo not shown) [2,5-dimethylpiperazine], the inhibition at 13800 µM with S91 melanoma [1] (setting [14]) is 97%; in the data set with L929 fibroblast [2] (setting [15]), 0%. In the data set on melanin-pigmented cells (13.8 mM for 1 hour), the “in vitro effectiveness of dosage/time regimen” value was “effective in vitro for inhibiting the growth of melanin-pigmented cells with little or no effect upon unpigmented cells”.

With `c1cc(N2CCCCC2)ccn1` [4-piperidinopyridine], the inhibition at 13800 µM in the data set on S91 melanoma [1] (setting [14]) turned out to be 99%; with L929 fibroblast [2] (setting [15]), 14%. Further, the “in vitro effectiveness of dosage/time regimen” value in the data set with melanin-pigmented cells (13.8 mM for 1 hour) and in the data set on melanin-pigmented cells (35 mM for 30 minutes) was “effective in vitro for inhibiting the growth of melanin-pigmented cells with little or no effect upon unpigmented cells” each time.

Regarding `CCN1CCOCC1` [N--ethylmorpholine, reference compound], the inhibition at 13800 µM in the data set with S91 melanoma [1] (setting [14]) and in the data set on L929 fibroblast [2] (setting [15]) was 0% in each case.

For `CN1CCOCC1` [N--methylmorpholine, reference compound], the inhibition at 13800 µM in the data set on S91 melanoma [1] (setting [14]) and in the data set on L929 fibroblast [2] (setting [15]) was 0% in each case.

As to `c1ccncc1` [Pyridine, reference compound], the inhibition at 13800 µM in the data set with S91 melanoma [1] (S91, 1 h) came out at 0%; in the data set on L929 fibroblast [2] (L929, 1 h) it was 0%.

As to `C1CNCCN1` [piperazine], the inhibition at 13800 µM in the data set on HFH-LP [3] (Mus musculus, 13.8 mM for 1.5 hr, mean ± S.E., 6 replicates, read-out: Effect on Growth Rate (inhibition), HFH-LP) is 24 ± 9%; with S91 melanoma [1] (setting [14]) it was 70%; with L929 fibroblast [2] (setting [15]), 0%; in the data set with NP [4], 0%. Further, the “inhibition of pigmented cell line HFH-LP (in words)” value in the data set with HFH-LP [3] (not as effective as morpholine at the dosage tested) is on record as “selectively inhibitory to the pigmented cell line HFH-LP, although not as effective as morpholine”. Besides, the “in vitro effectiveness of dosage/time regimen” value in the data set with melanin-pigmented cells (13.8 mM for 1 hour) is given as “effective in vitro for inhibiting the growth of melanin-pigmented cells with little or no effect upon unpigmented cells”. For the same compound, the cytotoxicity at 24 h, 13800 µM in the data set “in vitro” was -101%. The cytotoxicity at 13800 µM in data set [5] was 46 ± 5%; in the data set on HFH-LP [6], -44 ± 4%.

As for `Cn1c(=O)c2[nH]cnc2n(C)c1=O` [theophylline, reference compound], the inhibition at 500 µM with L929 was -87%; in the data set with HFH-LP [9], 35%; in the data set with HFH-HP it was 40%; in the data set with RPMI-1641 [10], 35%; with NP [11], 11%; in the data set with BHK it was 20%. Moreover, in data set [7], the “effect of theophylline pretreatment on unpigmented cells” value is given as “remained unaffected”. In addition, the “growth rate of the cells” value with HFH-LP and HFH-HP is “decreased”. Also, the “pigmentation of the treated cells” value with HFH-LP and HFH-HP is given as “visible increase in pigmentation”. The growth rate entry with RPMI 1946 cells is given as “similarly affected”. Besides, the pigmentation result with RPMI 1946 cells is listed as “no visible change in pigmentation”. In addition, in the data set on RPMI-1641 [8], the sensitization to morpholine entry is given as “sensitized the lightly pigmented RPMI 1641 cell line to morpholine”.

With “piperidino 1,2-propanediol [piperidino1,2-propanediol]”, the “Percent Inhibition, S91 melanoma” value in the data set on S91 melanoma [1] (1 Hour Exposure to 13.8 mM) was determined as 46%. The “Percent Inhibition, L929 fibroblast” value in the data set with L929 fibroblast [2] (1 Hour Exposure to 13.8 mM) is recorded as 1%. For the same compound, the “% inhibition, S91 melanoma” value in the data set with S91 melanoma [12] (13.8 mM) is recorded as 16%; in the data set with S91 melanoma [12] (34.5 mM), 44%; in the data set with S91 melanoma [12] (69 mM), 81%; with S91 melanoma [12] (138 mM), 91%. Besides, the “% inhibition, L929 fibroblast” value with L929 fibroblast [13] (13.8 mM) was 0%; with L929 fibroblast [13] (34.5 mM), 7%; with L929 fibroblast [13] (69 mM), 10%; in the data set with L929 fibroblast [13] (138 mM), 19%. For the same compound, the “in vitro effectiveness of dosage/time regimen” value with melanin-pigmented cells (13.8 mM for 1 hour) and in the data set on melanin-pigmented cells (35 mM for 30 minutes) was “effective in vitro for inhibiting the growth of melanin-pigmented cells with little or no effect upon unpigmented cells” each time.
